Measured values as given in ChEMBL document CHEMBL1149619, “E,E,E-1-(4-Arylamino-4-oxo-2-butenoyl)-3,5-bis(arylidene)-4-piperidones: a topographical study of some novel potent cytotoxins” (Bioorg Med Chem, 2007).

How the values were obtained:
[1] = Cytotoxicity against human Molt 4/C8 cells; format: functional, cell-based; details: Molt4/C8
CCRF-CEM = test: Cytotoxicity against human CEM cells; format: functional, cell-based
L1210 = test: Cytotoxicity against mouse L1210 cells; format: functional, cell-based
Aspergillus fumigatus [2] = test: Antifungal activity against Aspergillus fumigatus F69827; format: functional
Aspergillus fumigatus [3] = test: Antifungal activity against Aspergillus fumigatus M44251; format: functional
Aspergillus fumigatus [4] = test: Antifungal activity against Aspergillus fumigatus ATCC 280995; format: functional
Aspergillus fumigatus [5] = test: Antifungal activity against Aspergillus fumigatus ATCC 280996; format: functional
Aspergillus fumigatus [6] = test: Antifungal activity against Aspergillus fumigatus ATCC 280997; format: functional
Mus musculus = test: Neurotoxicity in mouse assessed as mortality up to 300 mg/kg after 4 hrs; format: toxicity, organism-based; design: dose 300 mg/kg; details: in vivo
[7] = target: T1, Glycylpeptide N-tetradecanoyltransferase 1 (Homo sapiens) (UniProt P30419); test: Inhibition of human NMT at 50 uM
T1 sequence (whole entry): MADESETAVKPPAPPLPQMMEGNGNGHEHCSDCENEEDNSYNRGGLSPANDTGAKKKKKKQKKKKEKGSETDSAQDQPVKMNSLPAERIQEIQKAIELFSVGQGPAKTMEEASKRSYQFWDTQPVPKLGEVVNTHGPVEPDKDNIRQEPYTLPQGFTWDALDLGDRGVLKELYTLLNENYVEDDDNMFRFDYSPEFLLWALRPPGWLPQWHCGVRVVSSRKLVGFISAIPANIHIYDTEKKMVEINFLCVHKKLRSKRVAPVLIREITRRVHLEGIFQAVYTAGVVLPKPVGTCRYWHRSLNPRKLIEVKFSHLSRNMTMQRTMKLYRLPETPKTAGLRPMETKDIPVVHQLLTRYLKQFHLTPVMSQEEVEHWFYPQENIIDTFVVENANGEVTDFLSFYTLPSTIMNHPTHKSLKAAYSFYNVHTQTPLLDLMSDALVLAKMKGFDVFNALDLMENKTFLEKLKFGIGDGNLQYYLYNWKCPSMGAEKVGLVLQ

[8] = Cytotoxicity against human colon cancer cells; format: functional; details: Cancer cell lines
[9] = Cytotoxicity against human leukemia cells; format: functional; details: Leukemia cell

Row | SMILES | IC50 [1] | IC50 (CCRF-CEM) | IC50 (L1210) | MIC (Aspergillus fumigatus [2]) | MIC (Aspergillus fumigatus [3]) | MIC (Aspergillus fumigatus [4]) | MIC (Aspergillus fumigatus [5]) | MIC (Aspergillus fumigatus [6]) | Activity (Mus musculus) | inhibition [7] | GI50 [8] | GI50 [9]
1 | O=C(/C=C/C(=O)N1C/C(=C\c2ccc([N+](=O)[O-])cc2)C(=O)/C(=C/c2ccc([N+](=O)[O-])cc2)C1)Nc1ccc([N+](=O)[O-])cc1 | 430 nM | 410 nM | 1000 nM | > 50 µg/mL | > 50 µg/mL | > 50 µg/mL | > 50 µg/mL | > 50 µg/mL | Non-toxic |  |  | 
2 | CC(=O)c1ccc(NC(=O)/C=C/C(=O)N2C/C(=C\c3ccc([N+](=O)[O-])cc3)C(=O)/C(=C/c3ccc([N+](=O)[O-])cc3)C2)cc1 | 390 nM | 360 nM | 1400 nM | > 50 µg/mL | > 50 µg/mL | > 50 µg/mL | > 50 µg/mL | > 50 µg/mL | Non-toxic |  |  | 
3 | Cc1cccc(C)c1NC(=O)/C=C/C(=O)N1C/C(=C\c2ccccc2)C(=O)/C(=C/c2ccccc2)C1 | 6600 nM | 7400 nM | 22000 nM | > 50 µg/mL | > 50 µg/mL | > 50 µg/mL | > 50 µg/mL | > 50 µg/mL | Non-toxic |  |  | 
4 | Cc1ccc(NC(=O)/C=C/C(=O)N2C/C(=C\c3ccc([N+](=O)[O-])cc3)C(=O)/C(=C/c3ccc([N+](=O)[O-])cc3)C2)cc1 | 700 nM | 890 nM | 4400 nM | > 50 µg/mL | > 50 µg/mL | > 50 µg/mL | > 50 µg/mL | > 50 µg/mL | Non-toxic | 50% |  | 
5 | COc1ccc(NC(=O)/C=C/C(=O)N2C/C(=C\c3ccc([N+](=O)[O-])cc3)C(=O)/C(=C/c3ccc([N+](=O)[O-])cc3)C2)cc1 | 940 nM | 760 nM | 2900 nM | > 50 µg/mL | > 50 µg/mL | > 50 µg/mL | > 50 µg/mL | > 50 µg/mL | Non-toxic |  |  | 
6 | O=c1[nH]cc(F)c(=O)[nH]1 [FLUOROURACIL] |  |  |  |  |  |  |  |  |  |  | 5750 nM | 52500 nM
7 | COc1ccc(NC(=O)/C=C/C(=O)N2C/C(=C\c3ccccc3)C(=O)/C(=C/c3ccccc3)C2)cc1 | 1100 nM | 510 nM | 6800 nM | > 50 µg/mL | > 50 µg/mL | > 50 µg/mL | > 50 µg/mL | > 50 µg/mL | Non-toxic |  | 759 nM | 105 nM
8 | Cc1cccc(C)c1NC(=O)/C=C/C(=O)N1C/C(=C\c2ccc([N+](=O)[O-])cc2)C(=O)/C(=C/c2ccc([N+](=O)[O-])cc2)C1 | 210 nM | 230 nM | 690 nM | > 50 µg/mL | > 50 µg/mL | > 50 µg/mL | > 50 µg/mL | > 50 µg/mL | Non-toxic |  |  | 
9 | O=C(/C=C/C(=O)N1C/C(=C\c2ccccc2)C(=O)/C(=C/c2ccccc2)C1)Nc1ccc(Cl)cc1 | 1800 nM | 840 nM | 7800 nM | > 50 µg/mL | > 50 µg/mL | > 50 µg/mL | > 50 µg/mL | > 50 µg/mL | Non-toxic |  | 1150 nM | 589 nM
10 | N[C@@H](Cc1ccc(N(CCCl)CCCl)cc1)C(=O)O [MELPHALAN] |  |  |  |  |  |  |  |  |  |  | 50100 nM | 3980 nM
